Results published in article PMC8551653, “Bisphenol A derivatives act as novel coactivator-binding inhibitors for estrogen receptor β” (The Journal of Biological Chemistry, 2021).

Key:
ERα = test system: ERα; set-up: method as in PMID 31289329; details: competitive binding, [3H] 17β-estradiol as radioligand; mean ± SD; read-out: Binding affinity (IC50, nM) ERα; cited from earlier work
ERβ [1] = molecular target: T1, ERβ (Homo sapiens, UniProt Q92731); assay: Luciferase reporter gene assay in HeLa cells, agonistic activity; format: cell-based; set-up: expressed in transfected cells; host or cells: HeLa; details: for maximum fold induction (agonistic activity on ERβ) / ERβ agonist activity (in words): HeLa cells; for maximum fold induction (agonistic activity on ERβ): ERE luciferase reporter, tested up to 10 µM; for ERβ agonist activity (in words): WT ERβ
Procedure: (§1) HeLa cells were maintained in Eagle's minimum essential medium (Nissui Pharmaceutical Co, Ltd) supplemented with DCC-treated fetal bovine serum (10%, v/v) at 37 °C under 5% CO2. […] After a 24-h incubation, luciferase activity was measured using the ONE-Glo Luciferase Assay System (Promega Co) on an EnSpire multimode plate reader (PerkinElmer, Inc).
Target sequence in this assay (Q92731 whole entry): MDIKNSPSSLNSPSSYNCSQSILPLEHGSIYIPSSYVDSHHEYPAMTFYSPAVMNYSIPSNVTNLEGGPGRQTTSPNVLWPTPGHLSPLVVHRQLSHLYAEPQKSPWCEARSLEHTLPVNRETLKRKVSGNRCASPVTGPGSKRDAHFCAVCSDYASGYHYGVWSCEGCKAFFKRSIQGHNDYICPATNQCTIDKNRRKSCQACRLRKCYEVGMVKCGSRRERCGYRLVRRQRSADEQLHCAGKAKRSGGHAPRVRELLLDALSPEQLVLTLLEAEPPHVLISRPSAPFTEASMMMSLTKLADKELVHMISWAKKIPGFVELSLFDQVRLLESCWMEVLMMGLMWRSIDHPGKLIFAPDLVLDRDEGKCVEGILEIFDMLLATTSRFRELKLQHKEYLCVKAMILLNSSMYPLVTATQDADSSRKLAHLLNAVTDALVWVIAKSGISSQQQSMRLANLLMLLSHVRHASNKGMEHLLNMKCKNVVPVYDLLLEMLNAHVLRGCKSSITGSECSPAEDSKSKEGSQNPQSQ

ERβ [2] = molecular target: T1, ERβ; assay: Luciferase reporter gene assay in HeLa cells, antagonistic activity against 10 nM E2; format: cell-based; set-up: expressed in transfected cells; host or cells: HeLa; details: for transcriptional activity (%) at most effective inhibitory concentration, ratio to that of 10 nM E2: HeLa cells, in the presence of 10 nM E2, 0.1, 1, 10 µM tested; for ERβ antagonist activity (in words): against 10 nM E2-induced ERβ activation, 100 nM, 1 μM, 10 μM; for suppression of E2-induced activation: at the 10 μM concentration, 10 nM E2
Procedure: as §1
Target sequence in this assay (Q92731 whole entry): as above

ERβ [3] = molecular target: T1, ERβ; assay: Radioligand competitive binding assay with [3H]E2 for ERβ (GST-ERβ-LBD); set-up: made in house; host or cells: Escherichia coli BL21α; details: for preference of binding ERβ over ERα: ERβ versus ERα IC50
Procedure: Human ERβ cDNA was obtained from OriGene Technologies. The cDNA of ERβ-LBD was amplified using PCR and subcloned into a pGEX-6p-1 expression vector. The expression of GST-fused ERβ-LBD was induced by 1 mM IPTG in Escherichia coli BL21α at 16 °C for overnight. The resulting crude protein was affinity-purified using Glutathione-Sepharose 4B (Cytiva), followed by gel filtration using a Sephadex G-10 column (Cytiva).
Target sequence in this assay (Q92731 263-530): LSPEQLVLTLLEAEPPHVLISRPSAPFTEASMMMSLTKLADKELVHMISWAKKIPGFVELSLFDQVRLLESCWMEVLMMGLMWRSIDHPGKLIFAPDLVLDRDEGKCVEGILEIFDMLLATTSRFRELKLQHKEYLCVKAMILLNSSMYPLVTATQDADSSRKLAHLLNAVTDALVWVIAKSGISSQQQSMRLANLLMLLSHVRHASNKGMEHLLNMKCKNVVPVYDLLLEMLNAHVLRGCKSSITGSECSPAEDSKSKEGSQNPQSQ

ERβ [4] = molecular target: T1, ERβ; assay: Competitive binding assay with [3H]4OHT for WT ERβ; set-up: made in house; host or cells: Escherichia coli BL21α
Procedure: (§2) After successive incubation with 100 μl of 0.4% dextran-coated charcoal (DCC) (Sigma-Aldrich) in PBS (pH 7.4) on ice for 10 min, free radioligands bound to DCC were removed using a vacuum filtration system with a 96-well filtration plate (MultiScreenHTS HV, […], Merck KGaA) for the bound/free separation. The radioactivity of each eluent was measured using a liquid scintillation counter (LS6500; Beckman Coulter) and Clear-sol I (Nacalai Tesque Inc). […] Each compound was dissolved in dimethyl sulfoxide to prepare a 1.0 mM stock solution and further diluted to prepare serial dilutions (10^−12 M to 10^−5 M) in the binding buffer. […] Bound/free separation was performed as described above, and the radioactivity was determined using a MicroBeta microplate counter (PerkinElmer Inc). The IC50 value of each test compound was calculated from the dose–response curves generated via nonlinear regression analysis using Prism software (GraphPad Software Inc).
Target sequence in this assay (Q92731 263-530): as above

ERβ(W335A) = ERβ(W335A) (Homo sapiens, UniProt Q92731, W335A); assay: Competitive binding assay for ERβ(W335A); set-up: made in house; host or cells: Escherichia coli BL21α (described for the wild-type LBD); details: for shape of competitive binding curve, ERβ(W335A): Fig. 4B
Procedure: as §2

[5] = competitive binding, [3H] 17β-estradiol as radioligand, mean ± SD, read-out: Binding affinity (IC50, nM) ERβ

ERβ(W335A), sequence (Q92731 263-530 W335A): as the sequence (Q92731 263-530) above, with W73A counted along it

| SMILES | IC50 (ERα) | maximum fold induction (agonistic activity on ERβ) (ERβ [1]) | ERβ agonist activity (in words) (ERβ [1]) | transcriptional activity (%) at most effective inhibitory concentration, ratio to that of 10 nM E2 (ERβ [2]) | ERβ antagonist activity (in words) (ERβ [2]) | IC50 (ERβ [3]) | other results |
| --- | --- | --- | --- | --- | --- | --- | --- |
| Oc1ccc(C(=C(Cl)Cl)c2ccc(O)cc2)cc1 [Compound 1, 4,4'-(2,2-dichloroethene-1,1-diyl)diphenol] | 2.81 ± 0.61 nM | 2.39 | weak transcriptional activity | 6.0% | strongest antagonistic activity | 2.99 ± 1 nM | IC50 (ERβ [4]): 18.1 nM; shape of competitive binding curve, WT ERβ (ERβ [4]; [3H]4OHT radioligand): biphasic dose–response curve; IC50 (ERβ [4]; read-out: IC50, biphasic curve, low-affinity site, [3H]4OHT radioligand, WT ERβ): 2280 nM; IC50 (ERβ(W335A)): 691 ± 29 nM; shape of competitive binding curve, ERβ(W335A) (ERβ(W335A)): biphasic binding of BPC and BPAF was lost |
| Oc1ccc(C(c2ccc(O)cc2)C(Cl)(Cl)Cl)cc1 [Compound 3, 2,2-bis(p-hydroxyphenyl)-1,1,1-trichloroethane] |  |  |  |  | antagonistic activities |  | preference of binding ERβ over ERα (ERβ [3]): three times stronger binding to ERβ than ERα |
| Oc1ccc(C(c2ccc(O)cc2)(C(F)(F)F)C(F)(F)F)cc1 [Compound 4, 4,4'-(perfluoropropane-2,2-diyl)diphenol] |  |  | weak transcriptional activity |  | antagonistic activities |  | preference of binding ERβ over ERα (ERβ [3]): three times stronger binding to ERβ than ERα; shape of competitive binding curve, WT ERβ (ERβ [4]; [3H]4OHT radioligand): biphasic binding curve; increase of ERβ binding compared with BPA (ERβ [4]; compared with BPA): ~50 fold; shape of competitive binding curve, ERβ(W335A) (ERβ(W335A)): biphasic binding of BPC and BPAF was lost |
| CC/C(=C(\c1ccc(O)cc1)c1ccc(OCCN(C)C)cc1)c1ccccc1 [Compound 4OHT, 4-Hydroxytamoxifen, reference compound] | […] |  |  |  |  |  | shape of competitive binding curve, WT ERβ (ERβ [4]; [3H]4OHT radioligand): biphasic curve |
| Oc1ccc(C2(c3ccc(O)cc3)CCCCC2)cc1 [Compound 5, 4,4'-(cyclohexane-1,1-diyl)diphenol] |  | 3.29 |  | 19.9% |  | 21.6 ± 1.9 nM |  |
| CCCCC(CC)C(c1ccc(O)cc1)c1ccc(O)cc1 (stereo not drawn) [Compound 6, 4,4′-(2-Ethylhexylidene)bisphenol] | 18.5 ± 6.7 nM | 1.59 | no agonist activity | 11.1% |  |  | suppression of E2-induced activation (ERβ [2]): 90%; IC50 (ERβ [3]; [5]): 25.9 ± 8.5 nM |
| Cc1cc(C(c2ccccc2O)c2cc(C)c(O)c(C)c2C)c(C)c(C)c1O [Compound 7, 4,4′-(2-Hydroxybenzylidene)-bis(2,3,6-trimethylphenol)] | 12.3 ± 7.3 nM | 1.45 | no agonist activity | 6.6% |  |  | suppression of E2-induced activation (ERβ [2]): 90%; IC50 (ERβ [3]; [5]): 41.5 ± 2 nM |
| CCC(C)(c1ccc(O)cc1)c1ccc(O)cc1 [Compound 8, 4,4'-(butane-2,2-diyl)diphenol] | 195 ± 44 nM | 5.13 |  | 28.9% | weak antagonist activity | 79.8 ± 12.6 nM | transcriptional activity as % of BPA-induced transcriptional activity (ERβ [1]; at the highest concentration of 10 μM): ~50%; inhibition of BPA-induced activation (ERβ [2]; as worded): 50% |
| Cc1cc(C2(c3ccc(O)c(C)c3)CCCCC2)ccc1O [Compound 9, 1,1-Bis(4-hydroxy-3-methylphenyl)cyclohexane] | 38.6 ± 7.2 nM | 2.27 |  | 17.0% |  |  | IC50 (ERβ [3]; [5]): 132 ± 6.5 nM |
| CC(C)(c1ccc(O)cc1)c1cccc(C(C)(C)c2ccc(O)cc2)c1 [Compound 10, 4,4'-(1,3-phenylenebis(propane-2,2-diyl))diphenol] | 56.8 ± 11.7 nM | 1.12 | no agonist activity | 5.4% | antagonistic activity | 148 ± 80 nM |  |
| CC(c1ccccc1)(c1ccc(O)cc1)c1ccc(O)cc1 [Compound 11, 4,4'-(1-phenylethane-1,1-diyl)diphenol] | 259 ± 41 nM |  |  |  |  |  |  |
| CC(C)(c1ccc(O)cc1)c1ccc(C(C)(c2ccc(O)cc2)c2ccc(O)cc2)cc1 [Compound 12, α, α, α′-Tris(4-hydroxyphenyl)-1-ethyl-4-isopropylbenzene] | 61.7 ± 10.4 nM | 1.02 | no agonist activity | 7.7% | antagonistic activity | 212 ± 36 nM |  |
| Nc1cc(C(c2ccc(O)c(N)c2)(C(F)(F)F)C(F)(F)F)ccc1O [Compound 13, 2,2-Bis(3-amino-4-hydroxyphenyl)hexafluoropropane] | 334 ± 112 nM | 1.67 |  | 86.7% |  |  | IC50 (ERβ [3]; [5]): 224 ± 113 nM |
| Oc1ccc(C2(c3ccc(O)cc3)c3ccccc3-c3ccccc32)cc1 [Compound 14, 9,9-Bis(4-hydroxyphenyl)fluorene] | 2230 ± 202 nM | 2.47 |  | 76.9% |  | 325 ± 60 nM |  |
| Cc1cc(C2(c3ccc(O)c(C)c3)c3ccccc3-c3ccccc32)ccc1O [Compound 15, 9,9-Bis(4-hydroxy-3-methylphenyl)fluorene] |  |  |  |  | weak antagonist | 405 ± 108 nM |  |
| CC(C)(c1ccc(O)cc1)c1ccc(C(C)(C)c2ccc(O)cc2)cc1 [Compound 16, 4,4'-(1,4-phenylenebis(propane-2,2-diyl))diphenol] | 176 ± 35 nM | 1.44 | no agonist activity | 11.8% | antagonistic activity | 607 ± 28 nM |  |
| Nc1ccc(Oc2ccc(C(c3ccc(Oc4ccc(N)cc4)cc3)(C(F)(F)F)C(F)(F)F)cc2)cc1 [Compound 17, 2,2-Bis[4-(4-aminophenoxy)phenyl]hexafluoropropane] | 1030 ± 375 nM | 1.46 |  | 99.1% |  | 609 ± 81 nM |  |
| Cc1cc(C(C)(C)c2ccc(C(C)(C)c3cc(C)c(O)c(C)c3)cc2)cc(C)c1O [Compound 20, α,α′-Bis(4-hydroxy-3,5-dimethylphenyl)-1,4-diisopropylbenzene] | 733 ± 628 nM | 0.99 | no agonist activity | 6.4% | antagonistic activity |  | IC50 (ERβ [3]; [5]): > 10000 nM |
| C[C@]12CC[C@@H]3c4ccc(O)cc4CC[C@H]3[C@@H]1CC[C@@H]2O [Compound E2, Estradiol, reference compound] | 0.88 ± 0.13 nM |  |  |  |  |  |  |
